Test results from patent publication US20150098983A1, “Methods and Compositions for Treating Withdrawal Syndromes Using Non-Sedative Dexmedetomidine Transdermal Compositions” (Teikoku Pharma USA, Inc., priority 2013, published 2015).
Like-named read-outs stand apart in the source and are kept apart here.

solubility of dexmedetomidine (in Duro-Tak 87-2979): less than 2%
solubility of dexmedetomidine (in Duro-Tak 387/87-2353 (acid functionalized acrylate adhesive)): 10-15%
solubility of dexmedetomidine (in hydroxyl functionalized acrylate polymer): less than 1%
solubility of dexmedetomidine (in lauryl lactate): 5 to 10%
solubility of dexmedetomidine (in levulinic acid): ~60%
solubility of dexmedetomidine (in oleic acid): ~40%
solubility of dexmedetomidine (in propylene glycolmonolaurate): 5 to 10%
Compound: Cc1cccc([C@H](C)c2cnc[nH]2)c1C [Dexmedetomidine]
